Data on 19 substances can be found in US8637484B2, “Modulation of growth hormone receptor expression and insulin-like growth factor expression” (Antisense Therapeutic Limited, priority 2003, dated 2014).

In the oligonucleotide strings, read from the 5' end, every base follows the letter of its sugar. An asterisk marks phosphorothioate; unmarked linkages are phosphodiester. Other units and linkages are bracketed, terminal groups are in braces. A string of capitals states the bases alone. e = 2'-O-(2-methoxyethyl) (MOE); [5mC] = 5-methylcytosine; d = 2'-deoxy (DNA)

This data set concerns human growth hormone receptor mRNA. Kind of data set: Inhibition of human growth hormone receptor mRNA levels in MCF7 cells, quantitative real-time PCR. It is filed as cell-based. Also noted: concentration or dose not given beside the values. Conditions: averages from three experiments. How it is done: The human breast carcinoma cell line MCF-7 was obtained from the American Type Culture Collection (Manassas, Va.). MCF-7 cells were routinely cultured in DMEM low glucose (Gibco/Life Technologies, Gaithersburg, Md.) supplemented with 10% fetal calf serum (Gibco/Life Technologies, Gaithersburg, Md.). Cells were routinely passaged by trypsinization and dilution when they reached 90% confluence. Cells were seeded into 96-well plates (Falcon-Primaria #3872) at a density of 7000 cells/well for use in RT-PCR analysis.
When cells reached 65-75% confluency, they were treated with oligonucleotide. For cells grown in 96-well plates, wells were washed once with 100 μL OPTI-MEM™-1 reduced-serum medium (Invitrogen Corporation, Carlsbad, Calif.) and then treated with 130 μL of OPTI-MEM™-1 containing 3.75 μg/mL LIPOFECTIN™ (Invitrogen Corporation, Carlsbad, Calif.) and the desired concentration of oligonucleotide. Cells are treated and data are obtained in triplicate. After 4-7 hours of treatment at 37° C., the medium was replaced with fresh medium. Cells were harvested 16-24 hours after oligonucleotide treatment.
Total RNA was isolated using an RNEASY 96™ kit and buffers purchased from Qiagen Inc. (Valencia, Calif.) following the manufacturer's recommended procedures. Briefly, for cells grown on 96-well plates, growth medium was removed from the cells and each well was washed with 200 μL cold PBS. 150 μL Buffer RLT was added to each well and the plate vigorously agitated for 20 seconds. 150 μL of 70% ethanol was then added to each well and the contents mixed by pipetting three times up and down. The samples were then transferred to the RNEASY 96™ well plate attached to a QIAVAC™ manifold fitted with a waste collection tray and attached to a vacuum source. Vacuum was applied for 1 minute. 500 μL of Buffer RW1 was added to each well of the RNEASY 96™ plate and incubated for 15 minutes and the vacuum was again applied for 1 minute. An additional 500 μL of Buffer RW1 was added to each well of the RNEASY 96™ plate and the vacuum was applied for 2 minutes. 1 mL of Buffer RPE was then added to each well of the RNEASY 96™ plate and the vacuum applied for a period of 90 seconds. The Buffer RPE wash was then repeated and the vacuum was applied for an additional 3 minutes. The plate was then removed from the QIAVAC™ manifold and blotted dry on paper towels. The plate was then re-attached to the QIAVAC™ manifold fitted with a collection tube rack containing 1.2 mL collection tubes. RNA was then eluted by pipetting 140 μL of RNAse free water into each well, incubating 1 minute, and then applying the vacuum for 3 minutes.
Quantitation of growth hormone receptor mRNA levels was accomplished by real-time quantitative PCR using the ABI PRISM™ 7600, 7700, or 7900 Sequence Detection System (PE-Applied Biosystems, Foster City, Calif.) according to manufacturer's instructions. This is a closed-tube, non-gel-based, fluorescence detection system which allows high-throughput quantitation of polymerase chain reaction (PCR) products in real-time. As opposed to standard PCR in which amplification products are quantitated after the PCR is completed, products in real-time quantitative PCR are quantitated as they accumulate. This is accomplished by including in the PCR reaction an oligonucleotide probe that anneals specifically between the forward and reverse PCR primers, and contains two fluorescent dyes. A reporter dye (e.g., FAM or JOE, obtained from either PE-Applied Biosystems, Foster City, Calif., Operon Technologies Inc., Alameda, Calif. or Integrated DNA Technologies Inc., Coralville, Iowa) is attached to the 5′ end of the probe and a quencher dye (e.g., TAMRA, obtained from either PE-Applied Biosystems, Foster City, Calif., Operon Technologies Inc., Alameda, Calif. or Integrated DNA Technologies Inc., Coralville, Iowa) is attached to the 3′ end of the probe. When the probe and dyes are intact, reporter dye emission is quenched by the proximity of the 3′ quencher dye. […]
Take “272316 (antisense eA*eA*e[5mC]*eT*e[5mC]*dG*d[5mC]*d[5mC]*dA*dT*dA*dA*dT*dT*dT*e[5mC]*e[5mC]*eA*eG*eA) [compound 272316]”: the “% INHIB” value came to 64%.
As to “272325 (antisense eA*eA*eG*eG*e[5mC]*dA*dT*dA*dA*dG*dA*dG*dA*dT*d[5mC]*eT*eG*e[5mC]*eT*eT) [compound 272325]”, the “% INHIB” value stood at 66%.
On to “272346 (antisense e[5mC]*eT*e[5mC]*eT*eT*dG*dG*dA*dG*dA*dA*dA*dA*d[5mC]*d[5mC]*eA*eT*eA*eG*e[5mC]) [compound 272346]”, for which the “% INHIB” value was found to be 67%.
Regarding “272350 (antisense eA*eG*eG*e[5mC]*eT*dG*dT*dT*dG*dT*dG*dA*dA*dA*dT*eA*eG*eT*eA*eA) [compound 272350]”, the “% INHIB” value is reported as 67%.
Consider “272302 (antisense eG*eA*eT*e[5mC]*e[5mC]*dA*dT*dA*d[5mC]*d[5mC]*dT*dG*dT*dA*dG*eG*eA*e[5mC]*e[5mC]*eT) [compound 272302]”, for which the “% INHIB” value worked out at 60%.
“272326 (antisense eA*e[5mC]*eT*e[5mC]*eA*dG*d[5mC]*dT*d[5mC]*d[5mC]*dT*dT*d[5mC]*dA*dG*eT*eA*eG*eG*eA) [compound 272326]”: the “% INHIB” value was 77%.
To “272314 (antisense eT*eA*eG*eG*eG*dT*d[5mC]*d[5mC]*dA*dT*d[5mC]*dA*dT*dT*dT*eT*e[5mC]*e[5mC]*eA*eT) [compound 272314]” belongs 56%.
On to “272303 (antisense e[5mC]*e[5mC]*eA*eG*eA*dG*dA*dT*d[5mC]*d[5mC]*dA*dT*dA*d[5mC]*d[5mC]*eT*eG*eT*eA*eG) [compound 272303]”, for which the “% INHIB” value worked out at 55%.
As for “272312 (antisense eG*eG*eG*eT*eG*dG*dA*dT*d[5mC]*dT*dG*dG*dT*dT*dG*e[5mC]*eA*e[5mC]*eT*eA) [compound 272312]”, the “% INHIB” value stood at 57%.
Turning to “227500 (antisense e[5mC]*eA*eT*eA*eG*d[5mC]*dA*dG*d[5mC]*dA*dA*dA*dG*dT*dA*eG*e[5mC]*eA*eG*eA) [compound 227500]”, the “% INHIB” value was 69%.
In the case of “227468 (antisense eT*e[5mC]*eA*eT*e[5mC]*dA*dA*dT*dA*dT*d[5mC]*dT*dA*dG*d[5mC]*eT*e[5mC]*eA*eA*eT) [compound 227468]”, the “% INHIB” value came to 62%.
Take “272340 (antisense e[5mC]*eA*eT*e[5mC]*eA*dA*d[5mC]*d[5mC]*dA*dA*dG*dA*dT*dT*dT*eG*eG*eT*eG*eA) [compound 272340]”: the “% INHIB” value turned out to be 69%.
As to “272354 (antisense eA*eG*eT*eT*eA*dT*dG*dT*dG*dA*d[5mC]*d[5mC]*d[5mC]*dT*dG*eA*eT*eT*eG*eA) [compound 272354]”, the “% INHIB” value came out at 65%.
“227475 (antisense e[5mC]*e[5mC]*eT*eG*e[5mC]*dT*dG*dG*dT*dG*dT*dA*dA*dT*dG*eT*e[5mC]*eG*e[5mC]*eT) [compound 227475]”: the “% INHIB” value came to 68%.
To “272356 (antisense eA*eT*eG*eG*eA*dG*dG*d[5mC]*dT*dG*dG*dA*dG*dG*dT*eT*e[5mC]*eA*eA*eA) [compound 272356]” belongs 63%.
On to “272337 (antisense eA*eA*eA*e[5mC]*eA*dT*dA*dG*d[5mC]*d[5mC]*dA*dT*dT*d[5mC]*dA*eA*eT*eG*e[5mC]*eT) [compound 272337]”, for which the “% INHIB” value came to 39%.
Take “272331 (antisense e[5mC]*eA*eG*eT*e[5mC]*dG*d[5mC]*dA*dT*dT*dG*dA*dG*dT*dA*eT*eG*eA*eG*eG) [compound 272331]”: the “% INHIB” value was 67%.
For “272313 (antisense eA*eT*eT*eG*e[5mC]*dG*dT*dG*dG*dT*dG*d[5mC]*dT*dT*d[5mC]*e[5mC]*e[5mC]*eA*eT*e[5mC]) [compound 272313]”, the “% INHIB” value stood at 77%.
To “227489 (antisense eT*eG*eT*eT*e[5mC]*dA*dG*dT*dT*dG*dG*dT*d[5mC]*dT*dG*eT*eG*e[5mC]*eT*e[5mC]) [compound 227489]” belongs 75%.
